The source made the active and inactive calls. The rule behind the calls is not given here.
Key:
[1] = target: Replicase polyprotein 1ab (Severe acute respiratory syndrome coronavirus 2, UniProt P0DTD1); test: Inhibition of N-terminal 8His and SUMO tagged SARS-CoV-2 nsp14 N7-methyltransferase activity extracted from Escherichia coli using S-Adenosyl-L-methionine as substrate incubated for 30 mins by mass spectrometry
SARS-CoV-2 = test: Antiviral activity against SARS-CoV-2 hCoV-19/Czech Republic/NRL_6632_2/2020 infected in African green monkey Vero E6 cells assessed as reduction in viral growth […] by two-fold serial dilution assay; type: functional, organism-based; details: Severe acute respiratory syndrome coronavirus 2
[2] = target: mRNA cap guanine-N(7) methyltransferase (Homo sapiens) (UniProt O43148); test: Inhibition of human RNMT at 25 uM
Sequence of mRNA cap guanine-N(7) methyltransferase (Homo sapiens) (O43148 whole entry): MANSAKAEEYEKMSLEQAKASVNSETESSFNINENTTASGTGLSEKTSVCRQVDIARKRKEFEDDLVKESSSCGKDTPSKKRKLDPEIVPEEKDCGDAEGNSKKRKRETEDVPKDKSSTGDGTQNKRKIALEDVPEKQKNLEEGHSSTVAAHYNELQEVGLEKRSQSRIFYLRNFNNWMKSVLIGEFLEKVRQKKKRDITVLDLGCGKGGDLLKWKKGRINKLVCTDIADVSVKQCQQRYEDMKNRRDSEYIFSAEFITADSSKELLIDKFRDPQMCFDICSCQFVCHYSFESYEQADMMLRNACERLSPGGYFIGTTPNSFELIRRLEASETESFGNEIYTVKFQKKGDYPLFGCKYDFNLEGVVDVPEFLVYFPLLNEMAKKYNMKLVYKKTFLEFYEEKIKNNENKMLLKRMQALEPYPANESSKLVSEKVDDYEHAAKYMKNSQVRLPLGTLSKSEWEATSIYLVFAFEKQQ

Row | SMILES | IC50 [1] | Activity (SARS-CoV-2) | inhibition [2]
1 | Nc1ncnc2c1ncn2[C@@H]1O[C@H](C(=O)Nc2ccc(-c3cn[nH]c3)cc2)[C@@H](O)[C@H]1O | Not_active |  | 
2 | Cc1cc(=O)[nH]c2cc(NC(=O)[C@H]3O[C@@H](n4cc(C#Cc5cncnc5)c5c(N)ncnc54)[C@H](O)[C@@H]3O)ccc12 |  | inactive | inactive
3 | Cc1cc(=O)oc2cc(NC(=O)[C@H]3O[C@@H](n4cc(C#Cc5cncnc5)c5c(N)ncnc54)[C@H](O)[C@@H]3O)ccc12 |  | inactive | inactive
4 | NC(=O)c1ccc(NC(=O)[C@H]2O[C@@H](n3cnc4c(N)ncnc43)[C@H](O)[C@@H]2O)cc1 | Not_active |  | 
5 | Nc1ncnc2c1ncn2[C@@H]1O[C@H](C(=O)Nc2ccc(-c3ccoc3)cc2)[C@@H](O)[C@H]1O | Not_active |  | 
6 | COC(=O)c1cc(NC(=O)[C@H]2O[C@@H](n3cnc4c(N)ncnc43)[C@H](O)[C@@H]2O)ccc1F | Not_active |  | 
7 | Cc1cc(=O)[nH]c2cc(NC(=O)[C@H]3O[C@@H](n4cnc5c(N)ncnc54)[C@H](O)[C@@H]3O)ccc12 |  | inactive | inactive
8 | Cc1noc(C)c1-c1ccc(NC(=O)[C@H]2O[C@@H](n3cnc4c(N)ncnc43)[C@H](O)[C@@H]2O)cc1 | Not_active |  | 
9 | COC(=O)c1ccc(C(=O)NC[C@H]2O[C@@H](n3cnc4c(N)ncnc43)[C@H](O)[C@@H]2O)cc1 | Not_active |  | 
10 | Cc1cc(=O)oc2cc(NC(=O)[C@H]3O[C@@H](n4cnc5c(N)ncnc54)[C@H](O)[C@@H]3O)ccc12 |  | inactive | inactive
11 | COc1cccc(NC(=O)[C@H]2O[C@@H](n3cnc4c(N)ncnc43)[C@H](O)[C@@H]2O)c1 | Not_active |  | 
12 | Cc1cc(=O)[nH]c2cc(N(C)C(=O)[C@H]3O[C@@H](n4cc(C#Cc5cncnc5)c5c(N)ncnc54)[C@H](O)[C@@H]3O)ccc12 |  | inactive | inactive
13 | Cc1ccc(NC(=O)[C@H]2O[C@@H](n3cnc4c(N)ncnc43)[C@H](O)[C@@H]2O)cc1O | Not_active |  | 
14 | Nc1ncnc2c1ncn2[C@@H]1O[C@H](C(=O)Nc2ccc(-c3ccsc3)cc2)[C@@H](O)[C@H]1O | Not_active |  | 
15 | Nc1ncnc2c1ncn2[C@@H]1O[C@H](CNC(=O)c2ccc3c(c2)OCCO3)[C@@H](O)[C@H]1O | Not_active |  | 

From ChEMBL document CHEMBL6074627 (RSC Med Chem, 2024)
